The supplement of paper PMC12420376

Tests used:
[1] = system: KURAMOCHI; assay: drug sensitivity score (DSS2) on cancer cell count; higher = more sensitive; extreme values may be limits of the assay; settings: 72 h
In short: (§1)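 Ovarian cancer cells were grown alone or in 1:1 direct co-culture with lung or skin fibroblasts. They were plated onto 384-well plates pre-spotted acoustically with 528 approved and investigational compounds at 5 concentrations, then treated for 72 h. Cells were fixed, immunostained for CK8/18 with Hoechst, and imaged at 10× (4 fields) to count cancer cells. A drug sensitivity score (DSS2) was derived in Breeze from 4-parameter logistic fits, with screen quality checked by Z'.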

[2] = system: OVCAR8; assay: as above; settings: 72 h
In short: as §1

[3] = co-cultured fibroblast: BJHTERT
[4] = co-cultured fibroblast: none (monoculture)

SMILES	drug sensitivity score [1, 3] [DSS]	drug sensitivity score ([1]; co-cultured fibroblast: WI38) [DSS]	drug sensitivity score [1, 4] [DSS]	drug sensitivity score [2, 3] [DSS]	drug sensitivity score ([2]; co-cultured fibroblast: WI38) [DSS]	drug sensitivity score [2, 4] [DSS]
CN1CCN(c2ccc(C(=O)Nc3n[nH]c4ccc(Cc5cc(F)cc(F)c5)cc34)c(NC3CCOCC3)c2)CC1 [Entrectinib]	2.1	0.3	1.4	0	4	0
CNC(=O)c1ccc(N2C(=S)N(c3ccc(C#N)c(C(F)(F)F)c3)C(=O)C2(C)C)cc1F [Enzalutamide]	0	0	1.3	0	0	2.2
Cn1cc(C2=C(c3cn(C4CCN(Cc5ccccn5)CC4)c4ccccc34)C(=O)NC2=O)c2ccccc21 [Enzastaurin]	0	0.6	0	0	6.4	0
NS(=O)(=O)NCCNc1nonc1/C(=N/O)Nc1ccc(F)c(Br)c1 [Epacadostat]	0	0	0	0	0	0.6
COc1cccc2c1C(=O)c1c(O)c3c(c(O)c1C2=O)C[C@@](O)(C(=O)CO)C[C@@H]3O[C@H]1C[C@H](N)[C@@H](O)[C@H](C)O1 [Epirubicin]	12.2	12.7	19.2	14.7	9	12.3
CCOc1ccccc1-n1c(C(C)N2CCN(C(=O)COc3ccc(Cl)cc3)CC2)nc2ccccc2c1=O (configuration not stated) [Erastin]	3.6	3.9	2.6	17.9	18.6	7.4
COc1cc(OC)cc(N(CCNC(C)C)c2ccc3ncc(-c4cnn(C)c4)nc3c2)c1 [Erdafitinib]	0	0	0	0	0	0
C=C1C[C@@H]2CC[C@@]34C[C@H]5O[C@H]6[C@@H](O3)[C@H]3O[C@H](CC[C@@H]3O[C@H]6[C@H]5O4)CC(=O)C[C@@H]3[C@@H](OC)[C@@H](C[C@H](O)CN)O[C@H]3C[C@H]3O[C@@H](CC[C@@H]1O2)C[C@@H](C)C3=C [Eribulin]	28.8	26.9	27.5	27.5	29.9	26.6
C#Cc1cccc(Nc2ncnc3cc(OCCOC)c(OCCOC)cc23)c1 [Erlotinib]	1.1	2.6	0.4	3.1	0	5
COc1cc([C@@H]2c3cc4c(cc3[C@@H](O[C@@H]3O[C@@H]5CO[C@@H](C)O[C@H]5[C@H](O)[C@H]3O)[C@H]3COC(=O)[C@H]23)OCO4)cc(OC)c1O [Etoposide]	11.7	13.8	16.1	11.8	13.1	13.9
CO[C@H]1C[C@@H]2CC[C@@H](C)[C@@](O)(O2)C(=O)C(=O)N2CCCC[C@H]2C(=O)O[C@H]([C@H](C)C[C@@H]2CC[C@@H](OCCO)[C@H](OC)C2)CC(=O)[C@H](C)/C=C(\C)[C@@H](O)[C@@H](OC)C(=O)[C@H](C)C[C@H](C)/C=C/C=C/C=C/1C [Everolimus]	5.6	5.6	0	8.4	0	2.2
C=C1C[C@@H]2[C@H](CC[C@]3(C)C(=O)CC[C@@H]23)[C@@]2(C)C=CC(=O)C=C12 [Exemestane]	0	0	0	1.3	0	0
CCn1c(=O)c(-c2ccc(Cl)cc2Cl)cc2cnc(Nc3ccc(N4CCNCC4)c(F)c3)nc21 [FRAX486]	9.7	4.9	9.2	5.8	9.8	13.1
Cc1cnc(Nc2ccc(OCCN3CCCC3)cc2)nc1Nc1cccc(S(=O)(=O)NC(C)(C)C)c1 [Fedratinib]	7.9	3.7	2.8	4.9	5.2	7.2
CON(C)C(=O)N1N=C(c2cc(F)ccc2F)S[C@@]1(CCCN)c1ccccc1 [Filanesib]	21.4	22.4	16.2	21.9	32.9	29.3
O=C(Nc1nc2cccc(-c3ccc(CN4CCS(=O)(=O)CC4)cc3)n2n1)C1CC1 [Filgotinib]	5.1	5.2	2.4	2.9	1.3	1.7
CC(C)(C)NC(=O)[C@H]1CC[C@H]2[C@@H]3CC[C@H]4NC(=O)C=C[C@]4(C)[C@H]3CC[C@]12C [Finasteride]	0	0	0	2.1	0	0
O=c1[nH]c(=O)n([C@H]2C[C@H](O)[C@@H](CO)O2)cc1F [Floxuridine]	19.9	19	20.7	18.7	17.9	26.7
Nc1nc(F)nc2c1ncn2[C@@H]1O[C@H](CO)[C@@H](O)[C@@H]1O [Fludarabine]	0.3	4.5	0	8	8.5	13.4

SMILES	drug sensitivity score [1, 3] [DSS]	drug sensitivity score ([1]; co-cultured fibroblast: WI38) [DSS]	drug sensitivity score [1, 4] [DSS]	drug sensitivity score [2, 3] [DSS]	drug sensitivity score ([2]; co-cultured fibroblast: WI38) [DSS]	drug sensitivity score [2, 4] [DSS]
O=c1[nH]cc(F)c(=O)[nH]1 [Fluorouracil]	2.3	5.4	5	1.3	1.4	5.5
CC(C)C(=O)Nc1ccc([N+](=O)[O-])c(C(F)(F)F)c1 [Flutamide]	0	1.3	0	0	0	0
COc1cc2c(Oc3ccc(NC(=O)C4(C(=O)Nc5ccc(F)cc5)CC4)cc3F)ccnc2cc1OCCCN1CCOCC1 [Foretinib]	2.7	4.3	1.7	5.7	5.6	6.1
COc1cc(Nc2ncc(F)c(Nc3ccc4c(n3)N(COP(=O)(O)O)C(=O)C(C)(C)O4)n2)cc(OC)c1OC [Fostamatinib]	0	2	0.3	0	0	0
C[C@]12CC[C@@H]3c4ccc(O)cc4C[C@@H](CCCCCCCCC[S+]([O-])CCCC(F)(F)C(F)(F)F)[C@H]3[C@@H]1CC[C@@H]2O (some centres not stated) [Fulvestrant]	0	0	0	0	7.2	0
CC1(C)OCCn2c1nc1c(N3CCOCC3)nc(-c3cnc(N)nc3)nc12 [GDC-0084]	12.7	11.5	12.1	8.3	3.8	11.9
O=C(NOCCO)c1ccc2cncn2c1Nc1ccc(I)cc1F [GDC-0623]	0	0	18.9	7.5	0	19.2
C[C@H]1CN(C2COC2)CCN1c1ccc(Nc2cc(-c3ccnc(N4CCn5c(cc6c5CC(C)(C)C6)C4=O)c3CO)cn(C)c2=O)nc1 [GDC-0853]	0	0	0	0	2.3	0
O[C@H](C[C@H]1c2c(F)cccc2-c2cncn21)[C@H]1CC[C@H](O)CC1 [GDC-0919]	1.3	0	0	0	0	1.6
CNc1nc(Nc2cn(C(C)(C)C#N)nc2C)ncc1C(F)(F)F [GNE-0877]	0	0	0	0	1.8	0
CCNc1nc(Nc2cc(F)c(C(=O)N3CCOCC3)cc2OC)ncc1C(F)(F)F [GNE-7915]	0	0	0	0	0	0
CCCc1cc(C)[nH]c(=O)c1CNC(=O)c1cc(-c2ccnc(N3CCN(C)CC3)c2)cc2c1cnn2C(C)C [GSK343]	0	0	0	1	0	0
CCCOc1ccn2c(C(C)=O)cc(-c3ccccc3S(C)(=O)=O)c2c1 [GSK2801]	0	0	0.9	0	0	0
CCOC(=O)CCNc1cc(N2CCc3ccccc3CC2)nc(-c2ccccn2)n1 [GSK-J4]	3.1	2.7	10.5	1.6	0.3	4.2
C[C@@H]1C=C2C(=O)O[C@@H]3CC[C@H](C1)[C@]23O [Galiellalactone]	6.9	8.2	3.5	0	3.9	0
Cc1cccc(-c2nn3c(c2-c2ccnc4ccc(C(N)=O)cc24)CCC3)n1 [Galunisertib]	3.4	0	13.8	0	0	0
Cc1cc(Nc2cc(CN3CCOCC3)c3nc(C)c(Cc4ccc(Cl)cc4F)n3n2)n[nH]1 [Gandotinib]	7.6	3.7	4	9	12.1	9.7
CC(C)c1cc(-c2n[nH]c(=O)n2-c2ccc3c(ccn3C)c2)c(O)cc1O [Ganetespib]	14.8	17.1	21	22.3	22.9	27.1
